Laboratory results: ChEMBL document CHEMBL6127052, “Discovery of membrane-targeting amphiphilic honokiol derivatives containing an oxazolethione moiety to combat methicillin-resistant Staphylococcus aureus (MRSA) infections” (Eur J Med Chem, 2024)
The source made the active and inactive calls. The rule behind the calls is not given here.

Experiments:
Staphylococcus aureus [1] = assay: Induction of resistance development in Staphylococcus aureus ATCC 29213 assessed as increase in MIC at 0.5 times MIC treated for 4 days of consecutive passages; type: functional, organism-based; conditions: time 4.0 day
Staphylococcus aureus [2] = assay: Induction of resistance development in Staphylococcus aureus ATCC 29213 assessed as fold increase in MIC at 0.5 times MIC treated for 18 days of consecutive passages; type: functional; conditions: time 18 day
Staphylococcus aureus [3] = assay: Antibacterial activity against methicillin-resistant Staphylococcus aureus clinical isolate M12 infected in KM mouse assessed as decrease in erythematous pustules at infected skin on back of animal at 5 mg/kg, sc measured after 24 hrs; type: functional, organism-based
Staphylococcus aureus [4] = assay: Antibacterial activity against methicillin-resistant Staphylococcus aureus clinical isolate M12 infected in KM mouse assessed as decrease in erythematous pustules in intradermal tissues at 5 mg/kg, sc measured after 24 hrs; type: functional, organism-based
Staphylococcus aureus [5] = assay: Antibacterial activity against methicillin-resistant Staphylococcus aureus clinical isolate M12 infected in KM mouse assessed as decrease in bacterial load in skin tissues at 5 mg/kg, sc measured after 24 hrs by drop-plate counting method (reference value: 6.7); type: functional
Staphylococcus aureus [6] = assay: Antibacterial activity against methicillin-resistant Staphylococcus aureus clinical isolate M12 infected in KM mouse assessed as decrease in bacterial survival rate at 5 mg/kg, sc measured after 24 hrs by drop-plate counting method relative to control; type: functional
Staphylococcus aureus [7] = assay: Antibacterial activity against methicillin-resistant Staphylococcus aureus clinical isolate M12 infected in KM mouse assessed as reduction in TNF-alpha level at infection site at 5 mg/kg, sc measured after 24 hrs by ELISA; type: functional
Staphylococcus aureus [8] = assay: Antibacterial activity against methicillin-resistant Staphylococcus aureus clinical isolate M12 infected in KM mouse assessed as reduction in IL-6 level at infection site at 5 mg/kg, sc measured after 24 hrs by ELISA; type: functional
[9] = Toxicity in KM mouse infected with methicillin-resistant Staphylococcus aureus clinical isolate M12 assessed as damage in heart at 5 mg/kg, sc measured after 24 hrs by H and E staining based analysis; type: organism-based; conditions: in vivo
[10] = Toxicity in KM mouse infected with methicillin-resistant Staphylococcus aureus clinical isolate M12 assessed as damage in lung at 5 mg/kg, sc measured after 24 hrs by H and E staining based analysis; type: organism-based; conditions: in vivo
[11] = Toxicity in KM mouse infected with methicillin-resistant Staphylococcus aureus clinical isolate M12 assessed as damage in liver at 5 mg/kg, sc measured after 24 hrs by H and E staining based analysis; type: organism-based; conditions: in vivo
[12] = Toxicity in KM mouse infected with methicillin-resistant Staphylococcus aureus clinical isolate M12 assessed as damage in spleen at 5 mg/kg, sc measured after 24 hrs by H and E staining based analysis; type: organism-based; conditions: in vivo
[13] = Toxicity in KM mouse infected with methicillin-resistant Staphylococcus aureus clinical isolate M12 assessed as damage in kidney at 5 mg/kg, sc measured after 24 hrs by H and E staining based analysis; type: organism-based; conditions: in vivo
[14] = Toxicity in KM mouse infected with methicillin-resistant Staphylococcus aureus clinical isolate M12 assessed as histopathological abnormality in heart at 5 mg/kg, sc measured after 24 hrs by H and E staining based analysis; type: organism-based; conditions: in vivo
[15] = Toxicity in KM mouse infected with methicillin-resistant Staphylococcus aureus clinical isolate M12 assessed as histopathological abnormality in lung at 5 mg/kg, sc measured after 24 hrs by H and E staining based analysis; type: organism-based; conditions: in vivo
[16] = Toxicity in KM mouse infected with methicillin-resistant Staphylococcus aureus clinical isolate M12 assessed as histopathological abnormality in liver at 5 mg/kg, sc measured after 24 hrs by H and E staining based analysis; type: organism-based; conditions: in vivo
[17] = Toxicity in KM mouse infected with methicillin-resistant Staphylococcus aureus clinical isolate M12 assessed as histopathological abnormality in spleen at 5 mg/kg, sc measured after 24 hrs by H and E staining based analysis; type: organism-based; conditions: in vivo
[18] = Toxicity in KM mouse infected with methicillin-resistant Staphylococcus aureus clinical isolate M12 assessed as histopathological abnormality in kidney at 5 mg/kg, sc measured after 24 hrs by H and E staining based analysis; type: organism-based; conditions: in vivo
Staphylococcus aureus [19] = assay: Antibacterial activity against methicillin-resistant Staphylococcus aureus clinical isolate M12 infected in sepsis BALB/c mouse model assessed as decrease in bacterial load in liver at 12 mg/kg, ip administered consecutively at 12 hr-interval for 24 hrs measured after 24 hrs post-last dose; type: functional; conditions: time 48 hrs
Staphylococcus aureus [20] = assay: Antibacterial activity against methicillin-resistant Staphylococcus aureus clinical isolate M12 infected in sepsis BALB/c mouse model assessed as decrease in bacterial load in kidney at 12 mg/kg, ip administered consecutively at 12 hr-interval for 24 hrs measured after 24 hrs post-last dose; type: functional; conditions: time 48 hrs
Staphylococcus aureus [21] = assay: Antibacterial activity against methicillin-resistant Staphylococcus aureus clinical isolate M12 infected in sepsis BALB/c mouse model assessed as decrease in bacterial load in spleen at 12 mg/kg, ip administered consecutively at 12 hr-interval for 24 hrs measured after 24 hrs post-last dose; type: functional; conditions: time 48 hrs
[22] = Toxicity in sepsis BALB/c mouse model infected with methicillin-resistant Staphylococcus aureus clinical isolate M12 assessed as survival rate at 12 mg/kg, ip administered consecutively at 12 hr-interval for 7 days measured after 24 hrs post-last dose; type: organism-based; conditions: in vivo, 192 h, time 8 day
Staphylococcus aureus [23] = assay: Antibacterial activity against methicillin-resistant Staphylococcus aureus clinical isolate M12 infected in sepsis BALB/c mouse model assessed as decrease in necrosis in hepatocytes at 12 mg/kg, ip administered consecutively at 12 hr-interval for 24 hrs measured after 24 hrs post-last dose by H and E staining based analysis; type: functional, organism-based; conditions: time 48.0 hrs
Staphylococcus aureus [24] = assay: Antibacterial activity against methicillin-resistant Staphylococcus aureus clinical isolate M12 infected in sepsis BALB/c mouse model assessed as decrease in degeneration of hepatocytes at 12 mg/kg, ip administered consecutively at 12 hr-interval for 24 hrs measured after 24 hrs post-last dose by H and E staining based analysis; type: functional, organism-based; conditions: time 48.0 hrs
Staphylococcus aureus [25] = assay: Antibacterial activity against methicillin-resistant Staphylococcus aureus clinical isolate M12 infected in sepsis BALB/c mouse model assessed as decrease in pathological change in red medulla of spleen at 12 mg/kg, ip administered consecutively at 12 hr-interval for 24 hrs measured after 24 hrs post-last dose by H and E staining based analysis; type: functional, organism-based; conditions: time 48.0 hrs
Staphylococcus aureus [26] = assay: Antibacterial activity against methicillin-resistant Staphylococcus aureus clinical isolate M12 infected in sepsis BALB/c mouse model assessed as decrease in pathological change in white medulla of spleen at 12 mg/kg, ip administered consecutively at 12 hr-interval for 24 hrs measured after 24 hrs post-last dose by H and E staining based analysis; type: functional, organism-based; conditions: time 48.0 hrs
Staphylococcus aureus [27] = assay: Antibacterial activity against methicillin-resistant Staphylococcus aureus clinical isolate M12 infected in sepsis BALB/c mouse model assessed as decrease in degeneration of renal tubular epithelial cells at 12 mg/kg, ip administered consecutively at 12 hr-interval for 24 hrs measured after 24 hrs post-last dose by H and E staining based analysis; type: functional, organism-based; conditions: time 48.0 hrs
Staphylococcus aureus [28] = assay: Antibacterial activity against methicillin-resistant Staphylococcus aureus clinical isolate M12 infected in sepsis BALB/c mouse model assessed as decrease in necrosis in renal tubular epithelial cells at 12 mg/kg, ip administered consecutively at 12 hr-interval for 24 hrs measured after 24 hrs post-last dose by H and E staining based analysis; type: functional, organism-based; conditions: time 48.0 hrs
Staphylococcus aureus [29] = assay: Antibacterial activity against Staphylococcus aureus ATCC 29213 by CLSI based micro-broth dilution method; type: functional
Staphylococcus aureus [30] = assay: Antibacterial activity against methicillin-resistant Staphylococcus aureus N315 by CLSI based micro-broth dilution method; type: functional
Staphylococcus aureus [31] = assay: Antibacterial activity against methicillin-resistant Staphylococcus aureus clinical isolate M11 by CLSI based micro-broth dilution method; type: functional
Staphylococcus aureus [32] = assay: Antibacterial activity against methicillin-resistant Staphylococcus aureus clinical isolate M12 by CLSI based micro-broth dilution method; type: functional
Staphylococcus aureus [33] = assay: Antibacterial activity against methicillin-resistant Staphylococcus aureus clinical isolate M13 by CLSI based micro-broth dilution method; type: functional
Staphylococcus aureus [34] = assay: Antibacterial activity against methicillin-resistant Staphylococcus aureus clinical isolate M14 by CLSI based micro-broth dilution method; type: functional
Staphylococcus aureus [35] = assay: Antibacterial activity against methicillin-resistant Staphylococcus aureus clinical isolate M16 by CLSI based micro-broth dilution method; type: functional
Staphylococcus aureus [36] = assay: Antibacterial activity against methicillin-resistant Staphylococcus aureus clinical isolate M17 by CLSI based micro-broth dilution method; type: functional
Staphylococcus aureus [37] = assay: Antibacterial activity against methicillin-resistant Staphylococcus aureus clinical isolate M20 by CLSI based micro-broth dilution method; type: functional
Staphylococcus aureus [38] = assay: Antibacterial activity against methicillin-resistant Staphylococcus aureus clinical isolate M21 by CLSI based micro-broth dilution method; type: functional
Staphylococcus aureus [39] = assay: Antibacterial activity against methicillin-resistant Staphylococcus aureus clinical isolate M22 by CLSI based micro-broth dilution method; type: functional
Staphylococcus aureus [40] = assay: Antibacterial activity against methicillin-resistant Staphylococcus aureus clinical isolate M23 by CLSI based micro-broth dilution method; type: functional
Escherichia coli = assay: Antibacterial activity against Escherichia coli ATCC 25922 by CLSI based micro-broth dilution method; type: functional
[41] = Hemolytic activity in sheep erythrocytes incubated for 1 hr by absorbance based assay; type: toxicity, cell-based, Ovis aries, Erythrocyte
[42] = Selectivity index, ratio of HC50 for hemolytic activity in sheep erythrocytes to MIC for antibacterial activity against Staphylococcus aureus ATCC 29213; type: toxicity, cell-based, RBC

## CCn1cc(C(=O)O)c(=O)c2cc(F)c(N3CCNCC3)cc21 [NORFLOXACIN]
Staphylococcus aureus [1]
  Activity: Active
Staphylococcus aureus [2]
  fold change (FC): 128

## CN[C@H](CC(C)C)C(=O)N[C@H]1C(=O)N[C@@H](CC(N)=O)C(=O)N[C@H]2C(=O)N[C@H]3C(=O)N[C@H](C(=O)N[C@H](C(=O)O)c4cc(O)cc(O)c4-c4cc3ccc4O)[C@H](O)c3ccc(c(Cl)c3)Oc3cc2cc(c3O[C@@H]2O[C@H](CO)[C@@H](O)[C@H](O)[C@H]2O[C@H]2C[C@](C)(N)[C@H](O)[C@H](C)O2)Oc2ccc(cc2Cl)[C@H]1O [VANCOMYCIN]
Staphylococcus aureus [3]
  Activity: inactive
Staphylococcus aureus [4]
  Activity: inactive
Staphylococcus aureus [5]
  Activity: 1.4 log10CFU/g
Staphylococcus aureus [6]
  Activity: 93.33%
Staphylococcus aureus [7]
  Activity: 96.3 pg/mL
Staphylococcus aureus [8]
  Activity: 56.5 pg/mL
[9]
  Activity: Non-Toxic
[10]
  Activity: Non-Toxic
[11]
  Activity: Non-Toxic
[12]
  Activity: Non-Toxic
[13]
  Activity: Non-Toxic
[14]
  Activity: Non-Toxic
[15]
  Activity: Non-Toxic
[16]
  Activity: Non-Toxic
[17]
  Activity: Non-Toxic
[18]
  Activity: Non-Toxic
Staphylococcus aureus [19]
  Activity: 1.62 log10CFU/g
Staphylococcus aureus [20]
  Activity: 1.48 log10CFU/g
Staphylococcus aureus [21]
  Activity: 1.57 log10CFU/g
[22]
  Survival: 50%
Staphylococcus aureus [23]
  Activity: Active
Staphylococcus aureus [24]
  Activity: Active
Staphylococcus aureus [25]
  Activity: Active
Staphylococcus aureus [26]
  Activity: Active
Staphylococcus aureus [27]
  Activity: Active
Staphylococcus aureus [28]
  Activity: Active

## C=CCc1cc(-c2ccc(OCCC[N+](C)(C)CC(=O)NCCCC)c(CC=C)c2)c2oc(=S)n(Cc3ccc(Cl)cc3Br)c2c1.[Br-]
Staphylococcus aureus [29]
  MIC: > 128 µg/mL
Staphylococcus aureus [30]
  MIC: 128 µg/mL
Staphylococcus aureus [31]
  MIC: 128 µg/mL
Staphylococcus aureus [32]
  MIC: > 128 µg/mL
Staphylococcus aureus [33]
  MIC: > 128 µg/mL
Staphylococcus aureus [34]
  MIC: > 128 µg/mL
Staphylococcus aureus [35]
  MIC: 128 µg/mL
Staphylococcus aureus [36]
  MIC: > 128 µg/mL
Staphylococcus aureus [37]
  MIC: > 128 µg/mL
Staphylococcus aureus [38]
  MIC: 128 µg/mL
Staphylococcus aureus [39]
  MIC: 128 µg/mL
Staphylococcus aureus [40]
  MIC: 128 µg/mL
Escherichia coli
  MIC: > 128 µg/mL
[41]
  HC50 at 1 h: 95.8 µg/mL
[42]
  selectivity ratio: 0.7

## C=CCc1cc(-c2ccc(OCCC[N+](C)(C)CC(=O)NCCCC)c(CC=C)c2)c2oc(=S)n(Cc3ccccc3Br)c2c1.[Br-]
Staphylococcus aureus [29]
  MIC: 128 µg/mL
Staphylococcus aureus [30]
  MIC: 128 µg/mL
Staphylococcus aureus [31]
  MIC: 64 µg/mL
Staphylococcus aureus [32]
  MIC: 16 µg/mL
Staphylococcus aureus [33]
  MIC: 128 µg/mL
Staphylococcus aureus [34]
  MIC: 128 µg/mL
Staphylococcus aureus [35]
  MIC: 64 µg/mL
Staphylococcus aureus [36]
  MIC: 64 µg/mL
Staphylococcus aureus [37]
  MIC: 64 µg/mL
Staphylococcus aureus [38]
  MIC: 32 µg/mL
Staphylococcus aureus [39]
  MIC: 32 µg/mL
Staphylococcus aureus [40]
  MIC: 64 µg/mL
Escherichia coli
  MIC: > 128 µg/mL
[41]
  HC50 at 1 h: > 160 µg/mL
[42]
  selectivity ratio: > 1.3
